Assay [1] can be described thus: Total cholesterol and triglyceride concentrations in hamster plasma. Format: in vivo. The following applies: for Increase in plasma total cholesterol / Increase in plasma triglycerides: 3 h after administration. The protocol: Nine- to ten-week-old, male golden Syrian hamsters were purchased from Japan SLC Inc. (Shizuoka, Japan). Animals underwent a more than 1-week acclimation period under the following conditions: 8:00/20:00 light/dark cycle, room temperature 23±2° C. (range), 55±15% (range) humidity. During this time, animals received filtered (0.5 μm) water and a standard chow diet ad libitum.
(§1) To induce an acute increase in plasma triglyceride levels, Triton WR-1339 (Cat. No. 35418-12, Nacalai Tesque Inc, Kyoto, Japan) was dissolved in saline (Otsuka Normal Saline, Otsuka Pharmaceuticals, Tokushima, Japan) at a concentration of 2.5 to 10% (w/w), and was intravenously administered at a volume of 2 mL/kg from the basilic vein under isoflurane (FORANE®, Abbott Japan Co. Ltd., Tokyo, Japan) inhalant anesthesia. Whole blood samples were collected using a heparin-washed syringe (Heparin sodium injection “Ajinomoto”; Ajinomoto, Tokyo, Japan) from the abdominal vein by venipuncture under isoflurane (Abbott Japan Co. Ltd.) inhalant anesthesia. After centrifugation at 15,000 rpm for 10 min at 4° C., heparinized plasma was prepared and stored at −80° C. until use.
Compounds (CETP inhibitors) were suspended in 0.5% methyl cellulose (Methyl cellulose 400 cP, Cat. No. 138-05072, Wako Pure Chemical Industries, Osaka, Japan) solution, which was used as a vehicle. Compound or vehicle (10 mL/kg) was administered once by oral gavage 5 h before administration of Triton WR-1339.
Cholesterol and triglyceride concentrations in plasma and serum were measured manually with kits (Cholesterol E-test, Cat. No. 439-17501, and Triglyceride E-test, Cat. No. 432-40201, Wako Pure Chemical, Osaka, Japan).

Assay [2] in a line: HPLC lipoprotein analysis in hamster plasma. Format: in vivo. The procedure: as §1
An HPLC-size exclusion chromatography system with an on-line enzymatic dual detection system for lipids has been used for lipoprotein analysis. Plasma samples were diluted (5-fold) with saline after filtration (0.45 μm, Millipore Co, Cat. No. UFC30HV00) and injected into the HPLC system at a volume of 100 μL (as 20 μL of plasma), every 95 min, using an auto-sampler. Plasma lipoproteins were separated using a single Superose 6 column and filtered phosphate buffered saline (0.45 μm, Millipore Co., Bedford, Mass., Cat. No. SJHVM4710; PBS, Dainippon Pharmaceutical, Osaka, Japan Cat. No. 28-103-05 FN) at a flow rate of 0.5 mL/min. Each enzymatic reagent was pumped at a flow rate of 0.25 mL/min. Both enzymatic reactions proceeded at 37° C. in a reactor coil (Teflon tube, 15 m×0.4 mm id) in the column oven. The color developed after the enzyme reaction was measured at 580 nm, and the electric signal was monitored (every 0.5 second).
A control pooled EDTA-plasma sample was used to standardize the cholesterol and phospholipid levels in lipoproteins. Cholesterol and phospholipid levels in the control plasma were measured manually with kits (Cholesterol E-test, Cat. No. 439-17501, and Phospholipid C-test, Cat. No. 433-36201, respectively, Wako Pure Chemical Industries), and the concentrations were 121.8 and 216.8 mg/dL, respectively. Concentrations of VLDL, LDL, and HDL-cholesterol and -phospholipid levels were calculated using chromatogram areas observed for control hamster plasma samples. With this methodology, the retention times of control hamster VLDL, LDL, and HDL were 18.5-24.0, 24.0-30.5, and 31.5-42.0 min, respectively.

In assay [3] the test system is CETP. Description: Plasma CETP concentrations (ELISA) in hamsters. The following applies: hamster, Triton WR-1339 i.v., any dose. Format: in vivo. The protocol:
as §1
Plasma CETP concentrations were measured using an enzyme-linked […] assay (ELISA) kit (Cat No. 278181, Daiichi Pure Chemicals, Tokyo, Japan). Recombinant human CETP protein was used as a standard. Hamster plasma was diluted 250-fold by the dilution buffer in the kit, and then CETP concentration was measured according to the manufacturer's protocol.
(ELISA stands for enzyme-linked immunosorbent assay.)

The test system of assay [4] is CETP. Description: Ex vivo CETP activity in plasma of hamsters (saline or Triton WR-1339 treated). The following applies: hamster; for Increase in plasma CETP activity: 3 h after administration; for Inhibition of plasma CETP activity: saline group, 8 h after dose; for Extent of CETP inhibition reduced by, relative to the saline group (74% inhibition): 10 mg/kg oral. The procedure: Nine- to ten-week-old, male golden Syrian hamsters were purchased from Japan SLC Inc. (Shizuoka, Japan). Animals underwent a more than 1-week acclimation period under the following conditions: 8:00/20:00 light/dark cycle, room temperature 23±2° C. […] During this time, animals received filtered (0.5 μm) water and a standard chow diet ad libitum.
Whole blood samples were collected using a heparin-washed syringe (Heparin sodium injection “Ajinomoto”; Ajinomoto, Tokyo, Japan) from the abdominal vein by venipuncture under isoflurane (Abbott Japan Co. Ltd.) inhalant anesthesia. After centrifugation at 15,000 rpm for 10 min at 4° C., heparinized plasma was prepared and stored at −80° C. until use.
CETP activity (RFU/min) was defined as the change in fluorescence intensity from 30 to 90 min.
The effect of an acute increase of plasma triglycerides in vivo (acute increase in triglyceride-rich particles) on the ability of Torcetrapib to alter plasma CETP activity, triglyceride and total cholesterol levels was investigated. Torcetrapib at doses of 3, 10 or 30 mg/kg or vehicle was administered once by gavage to hamsters fed a standard chow diet.
Compound or vehicle was administered once by gavage to hamsters fed a standard chow diet.

In assay [5] the test system is CETP. Description: Ex vivo plasma CETP activity assay with exogenously added compound (maximum inhibition). The format is biochemical. The following applies: 10 μM, hamster plasma (80% plasma). The procedure: Plasma CETP activity ex vivo was determined as followed: 50 μL of hamster plasma (final 80% plasma) was mixed with 10 μL of donor solution diluted with assay buffer composed of 50 mM Tris-HCl (pH7.4) containing 150 mM NaCl and 2 mM EDTA in a 96-well half area black flat bottom plate (Cat. No. 3686, Corning, Corning, N.Y.). Fluorescence intensity was measured every 15 min at an excitation wave length of 485 nm and an emission wavelength of 535 nm for 120 min at 37° C. using ARVO SX+L (PerkinElmer, Wellesley, Mass.). CETP activity (RFU/min) was defined as the change in fluorescence intensity from 30 to 90 min.

Turning to Triton WR-1339, the “Increase in plasma total cholesterol” value in assay [1] (Triton WR-1339 50 mg/kg i.v.) is reported as 1.2 fold; in assay [1] (Triton WR-1339 100 mg/kg i.v.), 1.4 fold. The “Increase in plasma triglycerides” value was determined as 2.0 fold in assay [1] (Triton WR-1339 50 mg/kg i.v.) and 4.0 fold in assay [1] (Triton WR-1339 100 mg/kg i.v.). Also, in assay [1] (Triton WR-1339 50, 100 or 200 mg/kg i.v.), the “Time of maximum increase in triglyceride levels after administration” value stood at 8 h. For the same compound, the “Effect on HDL-cholesterol” value in assay [2] (Triton WR-1339 50 mg/kg i.v.) is given as “not changed”; in assay [2] (Triton WR-1339 100 mg/kg i.v.) it was “reduced”. Further, the “Effect on LDL-cholesterol” value in assay [2] (Triton WR-1339 i.v.) was “reduced”. In addition, in assay [2] (Triton WR-1339 i.v. compared to saline group), the “Effect on cholesterol content of VLDL” value was “increased”. Also, in the assay on CETP [3], the “Effect on plasma CETP concentrations” value is on record as “did not significantly affect”. The figures for the “Increase in plasma CETP activity” value in the assay with CETP [4] (Triton WR-1339 50 mg/kg i.v.) and in the assay on CETP [4] (Triton WR-1339 100 mg/kg i.v.) were 1.7 fold and 3.7 fold, respectively.
In the case of `CCOC(=O)N1c2ccc(C(F)(F)F)cc2[C@@H](N(Cc2cc(C(F)(F)F)cc(C(F)(F)F)c2)C(=O)OC)C[C@H]1CC` [Torcetrapib], the “Maximum inhibition of CETP activity, compound exogenously added, Triton WR-1339 group” value with CETP [5] (Triton WR-1339 group) is on record as “around 75%”. Further, the “Maximum inhibition of CETP activity, compound exogenously added, saline group” value with CETP [5] (saline group) is reported as about 100%. For the same compound, in assay [1] (Triton WR-1339 treatment groups), the “Effect on plasma triglycerides” value is reported as “did not affect”. Moreover, the “Effect on plasma triglyceride levels” value in assay [1] (saline group, 3 and 30 mg/kg oral doses) is reported as “slightly, but significantly, lowered”. In assay [1] (saline or Triton WR-1339 groups), the “Effect on total cholesterol levels” value is reported as “not changed”. For the same compound, the entries for the “Differences between the saline and WR-1339 groups in the extent of CETP inhibition” value in the assay with CETP [4] (3 mg/kg oral gavage), in the assay with CETP [4] (10 mg/kg oral gavage) and in the assay on CETP [4] (30 mg/kg oral gavage (P<0.01)) were 5.5%, 13% and 35%, respectively. Further, the figures for the “Inhibition of plasma CETP activity” value in the assay with CETP [4] (3 mg/kg oral gavage), with CETP [4] (10 mg/kg oral gavage) and in the assay on CETP [4] (30 mg/kg oral gavage) were 38%, 74% and 88%, respectively. The “Extent of CETP inhibition reduced by, relative to the saline group (74% inhibition)” value in the assay on CETP [4] (Triton WR-1339 50 mg/kg i.v.) was 44%; with CETP [4] (Triton WR-1339 100 mg/kg i.v.) it was 13%. Besides, the “Inhibition of CETP activity, lower dose group, Triton WR-1339 group” value in the assay with CETP [4] (oral gavage: Torcetrapib 5 mg/kg, Anacetrapib 1.5 mg/kg, Example 49 1.5 mg/kg, Example 8 0.75 mg/kg, Triton WR-1339 100 mg/kg i.v., not significant vs vehicle) came to 13%. In addition, in the assay on CETP [4] (oral gavage: Torcetrapib 5 mg/kg, Anacetrapib 1.5 mg/kg, Example 49 1.5 mg/kg, Example 8 0.75 mg/kg, saline i.v.), the “Inhibition of CETP activity, lower dose group, saline group” value was determined as 60%. The “Inhibition of CETP activity, higher dose group, Triton WR-1339 group” value in the assay on CETP [4] (oral gavage: Torcetrapib 10 mg/kg, Anacetrapib 3 mg/kg, Example 49 3 mg/kg, Example 8 1.5 mg/kg, Triton WR-1339 100 mg/kg i.v.) was determined as 8%. Further, the “Inhibition of CETP activity, higher dose group, saline group” value in the assay on CETP [4] (oral gavage: Torcetrapib 10 mg/kg, Anacetrapib 3 mg/kg, Example 49 3 mg/kg, Example 8 1.5 mg/kg, saline i.v.) came to 75%.

(Values after patent publication US9867811B2, “Method of treating atherosclerosis in high triglyceride subjects” (NOVARTIS AG, priority 2011, dated 2018).)
